Common to all, as to format: in vivo, NOD/SCID mice
For one assay, the system named is PN4 tumors. Put plainly: Flow cytometry for ESA and CD44 on treated PN4 tumors. The settings on record: PN4 tumors harvested day 85, 5 tumors pooled; control antibody 12.7%. On the procedure:
Control and treated tumors from the OMP-PN4 xenograft study described above were harvested at the end of the study (day 85). The tumors were processed and dissociated into single cells. Single cell suspensions derived from 5 tumors of each treatment group were pooled, and the pooled samples were then incubated on ice for 30 min with antibodies that bind mouse cells selectively (α-mouse CD45-biotin 1:200 dilution and rat α-mouse H2Kd-biotin 1:100 dilution, BioLegend, San Diego, Calif.), followed by addition of streptavidin-labeled magnetic beads (Invitrogen, Carlsbad, Calif.). Mouse cells were removed with the aid of a magnet. For analysis of human cell surface markers, the single tumor cell suspension was stained with anti-ESA (Biomeda, Hayward, Calif.) and anti-CD44 (BD Biosciences, San Jose, Calif.) antibodies which were directly conjugated to fluorochromes. Dead cells were excluded by using the viability dye DAPI. Flow cytometry was performed using a FACS Aria instrument (Becton Dickinson, Franklin Lakes, N.J.). Side scatter and forward scatter profiles were used to eliminate cell clumps.
Background: In flow cytometry, cells or beads pass a laser one at a time.

For assay [1], the system named is C28 colon tumor xenografts. In words: C28 colon tumor xenograft, combination with irinotecan. The settings on record: C28 established tumors; FZD8-Fc 15 mg/kg once a week, irinotecan 15 mg/kg once a week, i.p. Here is the method: The effect of FZD8-Fc in combination with a chemotherapeutic agent on the growth of C28 colon tumor xenografts was analyzed. Dissociated C28 colon tumor cells (10,000 cells) were injected subcutaneously into 6-8 week old male NOD/SCID mice. Tumors were allowed to grow for 21 days until they reached an average volume of 128 mm^3. The mice were randomized (n=10 per group) and treated with FZD8-Fc (54F03) (15 mg/kg once a week), irinotecan (15 mg/kg once a week), a combination of FZD8-Fc and irinotecan or a control antibody. Administration of the FZD8-Fc, irinotecan and control antibody was performed via injection into the intraperitoneal cavity. Tumor growth was monitored and tumor volumes were measured with electronic calipers at the indicated time points. Data are expressed as mean±S.E.M.

A further assay relates to PE13 breast tumor. In words: PE13 breast tumor xenograft, tumor growth. The settings on record: FZD8-Fc 5 mg/kg i.p. twice a week, single agent. Here is the method:
Dissociated PE13 breast tumor cells (50,000 per animal) were injected subcutaneously into the mammary fat pads of NOD/SCID mice. Mice were monitored weekly and tumors were allowed to grow until they were approximately 106 mm^3. On day 27 post cell injection the mice were randomized into four treatment groups (n=10 mice/group) and treated with control antibody, FZD8-Fc (54F03), taxol or a combination of FZD8-Fc and taxol. Taxol was administered intraperitoneally at a dose of 7.5 mg/kg once a week and FZD8-Fc was administered intraperitoneally at a dose of 5 mg/kg twice a week.

Another assay relates to PN21 pancreas tumor. Put plainly: PN21 pancreas tumor xenograft, tumor growth. The note with it: FZD8-Fc 15 mg/kg i.p. once weekly. On the procedure:
The anti-tumor activity of FZD8-Fc (54F03) was evaluated in the PN21 pancreas tumor xenograft model. Dissociated OMP-PN21 cells (50,000 per animal) were injected subcutaneously into 6-8 week old male NOD/SCID mice. Tumor growth was monitored weekly and tumor measurements were initiated once tumors were palpable. On day 36, mice with average tumor volumes of 144 mm^3 were randomized into 4 groups of 9 animals each. Animals were injected with control antibody, FZD8-Fc (15 mg/kg), gemcitabine (2 mg/kg) or a combination of FZD8-Fc and gemcitabine. Administration of the FZD8-Fc and gemcitabine was performed via injection into the intraperitoneal cavity, once weekly. Tumors were measured twice a week and tumor volume was determined as described herein.

Another assay has as its system C28 colon tumor. Put plainly: C28 colon tumor xenograft, FZD8-Fc variants (Example 14). The note with it: C28 established tumors; 15 mg/kg i.p. twice a week. Here is the method: Dissociated C28 colon tumor cells (10,000 cells) were injected subcutaneously into 6-8 week old male NOD/SCID mice. Tumors were allowed to grow for 28 days until they reached an average volume of 145 mm^3. The mice were randomized (n=9 per group) and treated with FZD8-Fc variants or a control antibody at a dose of 15 mg/kg twice a week. Administration of the FZD8-Fc variants and control antibody was performed via injection into the intraperitoneal cavity. Tumor growth was monitored and tumor volumes were measured with electronic calipers at the indicated time points. Data are expressed as mean±S.E.M.

Assay [2] relates to PN13 tumors. In words: CK20 immunohistochemistry of treated PN13 tumors. The note with it: vs control antibody. On the procedure: (§1) The cell differentiation capability of FZD8-Fc was also evaluated in the OMP-PN13 pancreas tumor xenograft model. Dissociated OMP-PN13 cells (50,000 per animal) were injected subcutaneously into 6-8 week old male NOD/SCID mice. Tumor growth was monitored weekly and tumor measurements were initiated once tumors were palpable. On day 40 mice with average tumor volume of 114 mm^3 were randomized into 4 groups of 10 animals each. Animals were injected with either control antibody or FZD8-Fc (15 mg/kg). Administration of the FZD8-Fc and control antibody was performed via injection into the intraperitoneal cavity, twice weekly. After 19 days of treatment, the tumors were excised and immunohistochemistry analysis was performed using standard techniques. Briefly, tumors were fixed in formalin, embedded in paraffin, and tumor sections of 4 μm thickness were cut. After deparaffinization and hydration, the tumor sections were subjected to an antigen retrieval process in Tris buffer (pH 9.5). Sections were incubated with hydrogen peroxide (Sigma-Aldrich, St Louis, Mo.) for 10 minutes to block endogenous peroxidases. […]
Tumor sections were obtained and treated as described above. […] The bound antibody was detected using the immunohistochemistry protocol described above.

Assay [3] deals with PN13 tumors. In words: Alcian blue and Ki67 staining of treated PN13 tumors. The settings on record: FZD8-Fc 15 mg/kg i.p. twice weekly, 19 days, vs control antibody. On the procedure:
as §1, with “peroxidases. Anti-Ki67 antibody (Dako, clone MIB-1) at 1:200 dilution in blocking buffer (3% NHS, 1% BSA, 0.1% Tween-20, in PBS) was added to each section and incubated for 1 hour. Slides were rinsed 3 times in PBST for 5 minutes each.” for “peroxidases.”

Consider “54F03: Fri domain of human FZD8 fused to human IgG1 Fc with GRA linker; SEQ ID NO:1”, for which the “bulk tumor population expressing both ESA and CD44 at high levels (double positive population)” value with PN4 tumors is recorded as 1.9%. For the same substance, in assay [1], the “reduction in tumor growth over control antibody” value was found to be 66%. In addition, in the assay with PE13 breast tumor, the “reduction of tumor growth relative to control antibody” value worked out at 20%. In addition, in the assay with PN21 pancreas tumor, the “reduction in tumor growth as compared to control” value was 66%. The “reduction in tumor growth as compared to control antibody” value with C28 colon tumor was “approximately 56%”. Also, the “cells expressing CK20” value with PN13 tumors [2] is “increase in cells expressing CK20”. For the same substance, in the assay on PN13 tumors [3], the “cells expressing sialomucins (alcian blue)” value was “increase in cells expressing sialomucins” and the “proliferating cells denoted by expression of Ki67” value was “decrease in proliferating cells”.
